From ChEMBL document CHEMBL3044985, “Novel antitubercular diallyl/dibenzylthiosemicarbazones endowed with high activity toward multi-drug-resistant tuberculosis” (Med Chem Res, 2012)
In brackets after ≈: the same amount, converted by molar mass.

Legend:
[1] = tested on: Mycobacterium tuberculosis; assay: Antitubercular activity against Mycobacterium tuberculosis H37Rv by NCCLS agar dilution method; format: functional
[2] = Cytotoxicity against Chlorocebus aethiops (African green monkey) Vero cells assessed as cell viability after 72 hr by MTT assay; format: cell-based; details: chlorocebus sabaeus
[3] = tested on: Mycobacterium tuberculosis; assay: Ratio of ethambutol MIC to compound MIC for Mycobacterium tuberculosis H37Rv; format: functional
[4] = tested on: Mycobacterium tuberculosis; assay: Ratio of ofloxacin MIC to compound MIC for Mycobacterium tuberculosis H37Rv; format: functional
[5] = tested on: Mycobacterium tuberculosis; assay: Ratio of isoniazid MIC to compound MIC for Mycobacterium tuberculosis H37Rv; format: functional
[6] = Selectivity index, ratio of CC50 for african green monkey Vero cells to MIC for Mycobacterium tuberculosis H37Rv; format: toxicity, cell-based; details: read-out: Selectivity Index

SMILES | MIC [1] [µM] | CC50 at 72 h [2] [µM] | further results
C=CCN(CC=C)C(=S)N/N=C(/C)c1ccccc1 | 22.9 (≈ 6.25 µg/mL) | 229 | 
CC1COc2c(N3CCN(C)CC3)c(F)cc3c(=O)c(C(=O)O)cn1c23 (configuration not stated) [OFLOXACIN] | 2.13 (≈ 0.77 µg/mL) | > 155 | 
C=CCN(CC=C)C(=S)N/N=C(/C)c1ccccc1O | 21.6 (≈ 6.25 µg/mL) | 216 | 
C=CCN(CC=C)C(=S)NN=C(c1ccccc1)c1ccccc1 | 9.33 (≈ 3.13 µg/mL) | 186 | 
CC/C(C)=N\NC(=S)N(Cc1ccccc1)Cc1ccccc1 | 76.8 (≈ 25 µg/mL) |  | 
O=[N+]([O-])c1ccccc1/C=N\NC(=S)N(Cc1ccccc1)Cc1ccccc1 | 3.85 (≈ 1.56 µg/mL) | < 155 | 
C=CCN(CC=C)C(=S)N/N=C(/C)c1ccc(F)cc1 | 10.7 (≈ 3.13 µg/mL) | 214 | 
C=CCN(CC=C)C(=S)N/N=C(/C)c1ccc([N+](=O)[O-])cc1 | 9.83 (≈ 3.13 µg/mL) | < 196 | 
C=CCN(CC=C)C(=S)N/N=C\c1ccc([N+](=O)[O-])o1 | 2.65 (≈ 0.78 µg/mL) | < 212 | 
O=[N+]([O-])c1ccc(/C=N\NC(=S)N(Cc2ccccc2)Cc2ccccc2)cc1 | 0.98 (≈ 0.396 µg/mL) | < 155 | 
CC[C@@H](CO)NCCN[C@@H](CC)CO [ETHAMBUTOL] | 4.71 (≈ 0.962 µg/mL) | > 188 | 
C/C(=N/NC(=S)N(Cc1ccccc1)Cc1ccccc1)c1ccc(F)cc1 | 7.99 (≈ 3.13 µg/mL) | 160 | 
C=CCN(CC=C)C(=S)N/N=C\c1ccccc1O | 45.4 (≈ 12.5 µg/mL) |  | 
NNC(=O)c1ccncc1 [ISONIAZID] | 0.66 (≈ 0.0905 µg/mL) | > 456 | 
C/C(=N/NC(=S)N(Cc1ccccc1)Cc1ccccc1)c1ccc(O)cc1 | 16.1 (≈ 6.26 µg/mL) | 160 | 
C/C(=N/NC(=S)N(Cc1ccccc1)Cc1ccccc1)c1ccc([N+](=O)[O-])cc1 | 3.72 (≈ 1.56 µg/mL) | < 149 | 
C=CCN(CC=C)C(=S)N/N=C\c1ccc(Cl)cc1 | 5.3 (≈ 1.56 µg/mL) | 213 | 

SMILES | MIC [1] [µM] | CC50 at 72 h [2] [µM] | further results
C=CCN(CC=C)C(=S)N/N=C(/C)c1ccc(N)cc1 | 43.3 (≈ 12.5 µg/mL) |  | 
C=CCN(CC=C)C(=S)N/N=C\c1ccccc1C | 22.9 (≈ 6.25 µg/mL) | > 229 | 
C=CCN(CC=C)C(=S)N/N=C\c1ccc([N+](=O)[O-])cc1 | 2.56 (≈ 0.779 µg/mL) | < 205 | 
C=CCN(CC=C)C(=S)N/N=C\c1ccccc1[N+](=O)[O-] | 5.12 (≈ 1.56 µg/mL) | 205 | 
S=C(N/N=C\c1ccccc1)N(Cc1ccccc1)Cc1ccccc1 | 17.4 (≈ 6.26 µg/mL) | 174 | 
Cc1ccccc1/C=N\NC(=S)N(Cc1ccccc1)Cc1ccccc1 | 8.38 (≈ 3.13 µg/mL) | 167 | 
O=[N+]([O-])c1ccc(/C=N\NC(=S)N(Cc2ccccc2)Cc2ccccc2)o1 | 0.5 (≈ 0.197 µg/mL) | 158 | Ratio [3]: 9.4; Ratio [4]: 4.2; Ratio [5]: 1.3; selectivity ratio [6]: > 316
S=C(N/N=C\c1ccc(Cl)cc1)N(Cc1ccccc1)Cc1ccccc1 | 1.98 (≈ 0.78 µg/mL) | 159 | 
Oc1ccccc1/C=N\NC(=S)N(Cc1ccccc1)Cc1ccccc1 | 8.33 (≈ 3.13 µg/mL) | 166 | 
C/C(=N/NC(=S)N(Cc1ccccc1)Cc1ccccc1)c1ccccc1 | 16.7 (≈ 6.25 µg/mL) | 167 | 
S=C(NN=C(c1ccccc1)c1ccccc1)N(Cc1ccccc1)Cc1ccccc1 | 3.58 (≈ 1.56 µg/mL) | 143 | 
C=CCN(CC=C)C(=S)N/N=C(/C)c1ccc(O)cc1 | 21.6 (≈ 6.25 µg/mL) | 216 | 
C/C(=N/NC(=S)N(Cc1ccccc1)Cc1ccccc1)c1ccc(N)cc1 | 16.1 (≈ 6.25 µg/mL) | 161 | 
C=CCN(CC=C)C(=S)N/N=C(/C)CC | 111 (≈ 25 µg/mL) |  | 
C/C(=N/NC(=S)N(Cc1ccccc1)Cc1ccccc1)c1ccccc1O | 8.03 (≈ 3.13 µg/mL) | 160 | 
CO[C@H]1/C=C/O[C@@]2(C)Oc3c(C)c(O)c4c(O)c(c(/C=N/N5CCN(C)CC5)c(O)c4c3C2=O)NC(=O)/C(C)=C\C=C\[C@H](C)[C@H](O)[C@@H](C)[C@@H](O)[C@@H](C)[C@H](OC(C)=O)[C@@H]1C [RIFAMPIN] | 0.23 (≈ 0.189 µg/mL) | > 75.9 | 
C=CCN(CC=C)C(=S)N/N=C\c1ccccc1 | 48.2 (≈ 12.5 µg/mL) |  | 
